{"source": "patent US20240199571A1", "about": "“THIOPHENE COMPOUND AND APPLICATION THEREOF” (MEDSHINE DISCOVERY INC., priority 2021, published 2024)", "key": {"[1]": {"assay": "Experiment 3: pharmacokinetic evaluation in CD-1 mice (IV and oral)", "format": "in vivo", "details": "mouse, plasma, female CD-1 mice; for clearance / half-life / Vd: IV 1 mg/kg; for clearance: read-out: Clearance rate CL; for half-life: read-out: Half life T1/2 (IV, h) (converted); for Vd: read-out: Volume of distribution at steady state Vdss; for bioavailability: PO 2 mg/kg vs IV 1 mg/kg, read-out: Bioavailability F (%); for AUC(0-t): PO 2 mg/kg, read-out: Area under drug-time curve AUC0-last PO; for Cmax: single dose, oral 2 mg/kg, read-out: Peak concentration Cmax", "experimental": "Experiment 3: Pharmacokinetic Evaluation of Compounds\nExperimental purpose: To test the pharmacokinetics of compounds in CD-1 mice in vivo\nCD-1 mice (male/female, 7 to 9 weeks old, Shanghai SLAC)\nThe pharmacokinetic characteristics of the compounds in rodents after intravenous injection and oral administration were tested according to the standard protocol. In the experiment, the candidate compound was formulated into clear solutions, and a single intravenous injection and oral administration were given to mice. The vehicle for intravenous injection and oral administration was a mixed vehicle composed of 10% dimethyl sulfoxide and 90% hydroxypropyl β-cyclodextrin with a content of 10%. In this project, four male/female CD-1 mice were used. Two mice were injected intravenously at a dose of 1 mg/kg, and plasma samples were collected at 0.083, 0.25, 0.5, 1, 2, 4, 8, and 24 hours after administration; the other two were administered orally by gavage at a dose of 2 mg/kg, and plasma samples were collected at 0.25, 0.5, 1, 2, 4, 8, and 24 hours after administration. The samples were centrifuged at 3200 g for 10 minutes at 4° C., and plasma samples were obtained by separating the supernatant. A methanol solution containing internal standard with 20 times the volume of the sample was added thereto to precipitate the protein, and the mixture was centrifuged at 12000 g for 15 minutes at 4° C. 50 μL of the supernatant was taken and transferred to a 96-well plate and centrifuged again. The supernatant was taken for sampling. The plasma concentration was quantitatively analyzed using LC-MS/MS analysis method, and pharmacokinetic parameters, such as peak concentration (Cmax), clearance rate (CL), half-life (T1/2), volume of distribution at steady state (Vdss), area under drug-time curve (AUC0-last), bioavailability (F)."}, "[2]": {"target": "human LSD1 (Homo sapiens (Human), UniProt O60341)", "assay": "Experiment 1A: in vitro LSD1 enzyme activity, enzyme-coupled fluorescence (HRP/Amplex Red), H3K4me peptide 20 μM (Wuhan Heyan)", "format": "biochemical", "details": "histone H3K4me peptide 20 μM", "experimental": "Experiment 1A: Evaluation of Enzyme Activity\nTesting unit: Wuhan Heyan Biomedical Technology Co., Ltd.\nThe purpose of the assay was to test the in vitro inhibitory activity of the compounds against LSD1. The enzyme used in the assay was human LSD1, and the standard substrate was histone H3K4me peptide (20 μM). The activity of the compounds was determined by the enzyme-coupling fluorescent method by the combined detection of H2O2 generated after the reaction of LSD1 by horseradish peroxidase (HRP) and the fluorescent reagent Amplex Red. Starting from 10 μM, the compounds were 3-fold diluted to detect the IC50 values of the compounds at 10 concentrations. The enzyme and substrate were incubated for 30 minutes before the compound was added to the substrate to start the reaction. Fluorescence detector: EnVision, excitation wavelength: Ex/Em=530/590 nM."}, "[3]": {"system": "NCI-H1417 cells", "assay": "Experiment 2: inhibition of NCI-H1417 cell proliferation (CellTiter-Glo, 10 days)", "format": "cell-based", "details": "Homo sapiens, 240 h, 10 days incubation", "how_it_was_run": "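Cells at 1000 per well exposed to 10-point 3-fold dilutions from 10 μM top concentration for 10 days. Viability by CellTiter-Glo luminescence; inhibition normalized to max/min controls, IC50 from four-parameter fit.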"}}, "note": "Counter-ions that a name gives are not always drawn."}
{"smiles": "COc1ccc(-c2sc(C(=O)N3CCCNCC3)cc2-c2ccc(C#N)c(F)c2)cc1F", "note": "[Hydrochloride of compound 6]", "values": [{"measurement": "clearance", "setting": "[1]", "value": 18, "unit": "mL/min/kg"}, {"measurement": "half-life", "setting": "[1]", "value": 5.37, "unit": "h"}, {"measurement": "Vd", "setting": "[1]", "value": 7.76, "unit": "L/kg"}, {"measurement": "bioavailability", "setting": "[1]", "value": 64, "unit": "%"}, {"measurement": "AUC(0-t)", "setting": "[1]", "value": 2.52, "unit": "µM·h"}, {"measurement": "Cmax", "setting": "[1]", "value": 222, "unit": "nM"}, {"measurement": "IC50", "setting": "[2]", "value": 112, "unit": "nM"}, {"measurement": "IC50", "setting": "[3]", "value": 37.9, "unit": "nM"}]}
{"smiles": "COc1ccc(-c2sc(C(=O)N3CC[C@H](N)C3)cc2-c2ccc(C#N)c(F)c2)cc1F", "note": "[Hydrochloride of compound 7]", "values": [{"measurement": "clearance", "setting": "[1]", "value": 20.9, "unit": "mL/min/kg"}, {"measurement": "half-life", "setting": "[1]", "value": 3.74, "unit": "h"}, {"measurement": "Vd", "setting": "[1]", "value": 6.19, "unit": "L/kg"}, {"measurement": "bioavailability", "setting": "[1]", "value": 52.4, "unit": "%"}, {"measurement": "AUC(0-t)", "setting": "[1]", "value": 1.89, "unit": "µM·h"}, {"measurement": "Cmax", "setting": "[1]", "value": 176, "unit": "nM"}, {"measurement": "IC50", "setting": "[2]", "value": 121, "unit": "nM"}, {"measurement": "IC50", "setting": "[3]", "value": 20.4, "unit": "nM"}]}
